US20110224182A1, “SALTS OF (3-0-(3',3'-[…]) BETULINIC ACID AND SOLID STATE FORMS THEREOF” (Myriad Pharmaceuticals, Incorporated, priority 2007, published 2011)
Converted amounts (≈) assume the structure as drawn. Read-outs that look alike come from different tables or passages of the source.

Columns and labels:
[1] = Solubility (Method B): solvent added in portions until a clear solution is obtained; type: physicochemical; conditions: ambient temperature
Procedure: Method B-Solubility Measurement of the water solubility of the salts of this invention is accomplished by using methods well known to those skilled in the art. Specifically, to a weighed amount of DSB (+)-[…], DSB choline […], DSB diethanolamine […], or DSB diethylamine […], a solvent is added in small portions until a clear solution is obtained. The total volume of the solution is measured. The solubility of the particular DSB salt, in mg/mL, is calculated by dividing the weight of the salt (in mg), by the volume of the solution (in mL).

[2] = In vivo pharmacokinetic studies (Method H), plasma levels by LC-MS/MS; set-up: species or system male Sprague-Dawley rats; conditions: rat; for Mean plasma concentration: as free drug
Procedure: Method H—In Vivo Pharmacokinetic Studies
In vivo experiments were conducted in male Sprague-Dawley rats having a body mass of 225 g to 275 g with an appropriate cannula surgically inserted. Rats were supplied food and water ad libitum until 12 hours before dosing when food was removed. Food was withheld until four hours post-dosing. Water was available ad libitum. Each of group of rats consisted of 3 rats.
Dosing solutions were prepared the same day as dose administration. […] The administered dose of each salt was 1 mg/kg for intravenous administration and 10 mg/kg for oral gavage. Formulations for intravenous administration were filtered after preparation. Concentrations of respective dosing solutions were as depicted in Table 1 below.
Sampling was performed at predose, 2, 5, 15, and 30 minutes, 1, 2, 4, and 8 hours post dose. Blood samples were collected, placed into chilled tubes containing sodium heparin, and kept chilled until centrifuged at 4° C. at 13,000 rpm for 5 minutes. Plasma was separated and stored at −60° C. to −80° C. until analyzed.
Plasma levels of the compounds were determined by LC-MS/MS. Quantification of the compounds in plasma was performed against a calibration curve generated by serial dilution of a test article DMSO stock solution into blank heparinized rat plasma (50, 100, 200, 500, 1,000, 2,000, 5,000, and 10,000 ng/mL final concentrations of free drug). Quality control samples were prepared in the same fashion (250, 1,000, and 5,000 ng/mL final concentrations of free drug). The standard curve and quality control DMSO stock solutions were derived from independent weightings.
Plasma concentrations versus time data are plotted in FIGS. 26 through 37.
All data are expressed as ng/mL of the free drug. Samples that were below the limit of quantification (“bloq”) were assigned a value of zero for the mean concentration calculations.

[3] = oral gavage 10 mg/kg, 0.083 h post dose
[4] = oral gavage 10 mg/kg, 0.25 h post dose
[5] = oral gavage 10 mg/kg, 0.5 h post dose
[6] = oral gavage 10 mg/kg, 1 h post dose
[7] = oral gavage 10 mg/kg, 2 h post dose
[8] = oral gavage 10 mg/kg, 4 h post dose
[9] = oral gavage 10 mg/kg, 8 h post dose
[10] = oral gavage 10 mg/kg, relative to DSB-2 NMG intravenous

Molecule | Mean plasma concentration [2, 3] | Mean plasma concentration [2, 4] | Mean plasma concentration [2, 5] | Mean plasma concentration [2, 6] | Mean plasma concentration [2, 7] | Mean plasma concentration [2, 8] | Mean plasma concentration [2, 9] | AUC24 h ([2]; oral gavage 10 mg/kg, mean) | Cmax ([2]; oral gavage 10 mg/kg, mean) | Tmax ([2]; oral gavage 10 mg/kg, mean) | % Bioavailability [2, 10] | other results
C=C(C)[C@@H]1CC[C@]2(C(=O)O)CC[C@]3(C)[C@H](CC[C@@H]4[C@@]5(C)CC[C@H](OC(=O)CC(C)(C)C(=O)O)C(C)(C)[C@@H]5CC[C@]43C)[C@@H]12 [DSB Free Acid, 3-O-(3′,3′-dimethylsuccinyl)betulinic acid] |  |  |  |  |  |  |  |  |  |  |  | solubility ([1]; 1-propanol, organic solvent or mixture, thermodynamic from solid, 1-propanol, read-out: Solubility in 1-propanol): 6000 µg/mL (≈ 10.3 mM); solubility ([1]; 2,2,2-trifluoroethanol, organic solvent or mixture, thermodynamic from solid, 2,2,2-trifluoroethanol, read-out: Solubility in 2,2,2-trifluoroethanol): 2500 µg/mL (≈ 4.27 mM); solubility ([1]; 2-propanol, organic solvent or mixture, thermodynamic from solid, 2-propanol, read-out: Solubility in 2-propanol): 6000 µg/mL (≈ 10.3 mM); solubility ([1]; ethanol, organic solvent or mixture, thermodynamic from solid, ethanol, read-out: Solubility in ethanol): 15000 µg/mL (≈ 25.6 mM); solubility ([1]; methanol, organic solvent or mixture, thermodynamic from solid, methanol, read-out: Solubility in methanol): 7500 µg/mL (≈ 12.8 mM); solubility ([1]; water, thermodynamic from solid, water, read-out: Solubility in water): 350 µg/mL (≈ 0.598 mM)
C=C(C)[C@@H]1CC[C@]2(C(=O)O)CC[C@]3(C)[C@H](CC[C@@H]4[C@@]5(C)CC[C@H](OC(=O)CC(C)(C)C(=O)O)C(C)(C)[C@@H]5CC[C@]43C)[C@@H]12.CNC[C@H](O)[C@@H](O)[C@H](O)[C@H](O)CO.CNC[C@H](O)[C@@H](O)[C@H](O)[C@H](O)CO [DSB-2 NMG, reference compound] | 491.0 ng/mL | 3706.7 ng/mL | 3246.7 ng/mL | 3236.7 ng/mL | 1973.7 ng/mL | 1662.3 ng/mL | 635.7 ng/mL | 18041.1 ng·h/mL | 4480.0 ng/mL | 96 min | 26.2% | % Bioavailability ([2]; intravenous 1 mg/kg (reference)): 100.0%; AUC24 h ([2]; intravenous 1 mg/kg, mean): 6890.6 ng·h/mL; Cmax ([2]; intravenous 1 mg/kg, mean): 13785.9 ng/mL; Tmax ([2]; intravenous 1 mg/kg, mean): 0 min
C=C(C)[C@@H]1CC[C@]2(C(=O)O)CC[C@]3(C)[C@H](CC[C@@H]4[C@@]5(C)CC[C@H](OC(=O)CC(C)(C)C(=O)O)C(C)(C)[C@@H]5CC[C@]43C)[C@@H]12.OCCNCCO.OCCNCCO [DSB-2 Diethanolamine, diethanolamine disalt of DSB] | 880.7 ng/mL | 5190.0 ng/mL | 5743.3 ng/mL | 5873.3 ng/mL | 4730.0 ng/mL | 1830.0 ng/mL | 1149.3 ng/mL | 30958.7 ng·h/mL | 6720.0 ng/mL | 72 min | 44.9% | 
3-O-(3′,3′-dimethylsuccinyl)betulinic acid, bis-diethylamine salt [DSB-2 Diethylamine] | 352.7 ng/mL | 4576.7 ng/mL | 7420.0 ng/mL | 6873.3 ng/mL | 3750.0 ng/mL | 1886.7 ng/mL | 233.7 ng/mL | 21172.3 ng·h/mL | 7453.3 ng/mL | 40.2 min | 30.7% | 
bis-choline salt of DSB [DSB-2 Choline] |  |  |  |  |  |  |  |  |  |  |  | % Bioavailability ([2]; in vivo, 10 mg/kg): 30.3%; AUC24 h ([2]; in vivo, po, 10 mg/kg): 20872.2 ng·h/mL
bis-(+)-arginine salt of DSB [DSB-2 (+)-Arginine] | 2003.3 ng/mL | 6796.7 ng/mL | 6140.0 ng/mL | 5793.3 ng/mL | 4590.0 ng/mL | 1615.3 ng/mL | 532.3 ng/mL | 24342.9 ng·h/mL | 7093.3 ng/mL | 19.8 min | 35.3% | 
